Measured values: patent publication US20240360146A1, “BRUTON'S TYROSINE KINASE AND MUTANT DEGRADER, COMPOSITION AND APPLICATION THEREOF” (HANGZHOU HEALZEN THERAPEUTICS CO., LTD., priority 2021, published 2024)

Target: T1, BTK (Homo sapiens, UniProt Q06187)
T1 construct: endogenous in cells; host or cells: Mino cells
Assay: BTK degradation activity test in Mino cells
Format: cell-based
Settings: 16 h incubation, Western blot or Elisa
Protocol: Mino cell line cells were seeded at 500,000 to 1,000,000 cells/well in a 6-well plate. The compounds were diluted to different concentrations and added to the plate, and after 16 h of incubation, cells were harvested. After lysing the cells, the total protein concentration in each well was determined using the BCA method. The amount of BTK was determined using Western blot or Elisa method. The amount of undegraded BTK protein at each drug concentration was compared with the amount of BTK protein in the blank control group to calculate the degradation rate. The degradation curve was drawn based on the degradation rate at each concentration, and the half degradation concentration (DC50) was calculated by fitting.

T1 sequence (Q06187 whole entry): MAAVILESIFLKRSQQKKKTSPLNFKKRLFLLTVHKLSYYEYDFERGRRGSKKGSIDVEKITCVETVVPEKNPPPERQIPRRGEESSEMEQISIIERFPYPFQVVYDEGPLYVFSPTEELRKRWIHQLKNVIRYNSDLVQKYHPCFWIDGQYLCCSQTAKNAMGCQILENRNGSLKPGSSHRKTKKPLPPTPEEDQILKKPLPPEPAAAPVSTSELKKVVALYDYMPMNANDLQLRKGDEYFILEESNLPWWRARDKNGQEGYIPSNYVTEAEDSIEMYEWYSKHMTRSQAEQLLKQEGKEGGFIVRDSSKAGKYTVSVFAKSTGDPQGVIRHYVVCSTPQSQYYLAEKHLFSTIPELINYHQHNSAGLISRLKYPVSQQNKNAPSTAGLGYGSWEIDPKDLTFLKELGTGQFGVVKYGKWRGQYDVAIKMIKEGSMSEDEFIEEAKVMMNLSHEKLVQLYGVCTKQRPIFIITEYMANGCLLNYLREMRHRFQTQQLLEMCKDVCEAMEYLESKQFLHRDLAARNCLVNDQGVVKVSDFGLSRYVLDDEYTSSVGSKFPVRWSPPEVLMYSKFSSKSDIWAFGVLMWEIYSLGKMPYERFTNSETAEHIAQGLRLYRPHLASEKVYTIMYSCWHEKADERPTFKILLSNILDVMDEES

Structure (SMILES) | DC50 [nM]
CN1CCN([C@@H]2CCCN(c3nnc(C(N)=O)c(Nc4ccc(N5CCN(CC6CCN(c7cc8c(cc7F)C(=O)N(C7CCC(=O)NC7=O)C8=O)C6)CC5)c(F)c4)n3)C2)C1=O (stereo partly drawn) [Compound 169, 5-((4-(4-((1-(2-(2,6-dioxopiperidin-3-yl)-6-fluoro-1,3-dioxoisoindolin-5-yl)pyrrolidin-3-yl)methyl)piperazin-1-yl)-3-fluorophenyl)amino)-3-((R)-3-(3-methyl-2-oxoimidazolidin-1-yl)piperidin-1-yl)-1,2,4-triazin-6-carboxamide] | < 1
Cn1c(=O)n(C2CCC(=O)NC2=O)c2cccc(N3CC(N4CCC(C)(c5ccc(Nc6nc(N7CCCC(N8CCN(C9CCCC9)C8=O)C7)cnc6C(N)=O)cc5)CC4)C3)c21 (centres unmarked) [Compound 022] | < 1
CN1CCN([C@@H]2CCCN(c3nnc(C(N)=O)c(Nc4ccc(C5CCN(C[C@H]6CCN(c7ccc8c(c7)C(=O)N(C7CCC(=O)NC7=O)C8=O)C6)CC5)c(F)c4)n3)C2)C1=O (stereo partly drawn) [Compound 158, 5-((4-(1-(((3R)-1-(2-(2,6-dioxopiperidin-3-yl)-1,3-dioxoisoindolin-5-yl)pyrrolidin-3-yl)methyl)piperidin-4-yl)-3-fluorophenyl)amino)-3-((R)-3-(3-methyl-2-oxoimidazolin-1-yl)piperidin-1-yl)-1,2,4-triazin-6-carboxamide] | < 1
CN1CCN([C@@H]2CCCN(c3nnc(C(N)=O)c(Nc4ccc(C5CCN(CC6CCN(c7ccc(N8CCC(=O)NC8=O)cc7)CC6)CC5)c(CO)c4)n3)C2)C1=O [Compound 240, (R)-5-((4-(1-((1-(4-(2,4-dioxotetrahydropyrimidin-1(2H)-yl)phenyl)piperidin-4-yl)methyl)piperidin-4-yl)-3-(hydroxymethyl)phenyl)amino)-3-(3-(3-methyl-2-oxoimidazolidin-1-yl)piperidin-1-yl)-1,2,4-triazin-6-carboxamide] | < 1
CN1CCN(C2CC3CC2N(c2nnc(C(N)=O)c(Nc4ccc(C5CCN(CC6CCN(c7ccc8c(c7)C(=O)N(C7CCC(=O)NC7=O)C8)CC6)CC5)cc4)n2)C3)C1=O (centres unmarked) [Compound 112, 5-((4-(1-((1-(2-(2,6-dioxopiperidin-3-yl)-3-oxoisoindol-5-yl)piperidin-4-yl)methyl)piperidin-4-yl)phenyl)amino)-3-(6-(3-methyl-2-oxoimidazolin-1-yl)-2-azabicyclo[2.2.1]heptan-2-yl)-1,2,4-triazin-6-carboxamide] | < 1
CN1CCN([C@@H]2CCCN(c3nnc(C(N)=O)c(Nc4ccc(N5CCN(CC6CCN(c7ccc8c(C9CCC(=O)NC9=O)noc8c7)CC6)CC5)c(F)c4)n3)C2)C1=O (stereo partly drawn) [Compound 243, 5-((4-(4-((1-(3-(2,6-dioxopiperidin-3-yl)benzo[d]isoxazol-6-yl)piperidin-4-yl)methyl)piperazin-1-yl)-3-fluorophenyl)amino)-3-((R)-3-(3-methyl-2-oxoimidazolidin-1-yl)piperidin-1-yl)-1,2,4-triazin-6-carboxamide] | < 1
CN1CCN([C@@H]2CCCN(c3nnc(C(N)=O)c(Nc4ccc(N5CCN(CC6CCN(c7cccc8c(C9CCC(=O)NC9=O)nn(C)c78)CC6)CC5)c(F)c4)n3)C2)C1=O (stereo partly drawn) [Compound 217, 5-((4-(4-((1-(3-(2,6-dioxopiperidin-3-yl)-1-methyl-H-indazol-7-yl)piperidin-4-yl)methyl)piperazin-1-yl)-3-fluorophenyl)amino)-3-((R)-3-(3-methyl-2-oxoimidazolidin-1-yl)piperidin-1-yl)-1,2,4-triazin-6-carboxamide] | < 1
CC(C)N1CCN(C2CCCN(c3nnc(C(N)=O)c(Nc4ccc(C5CCN(CC6CCN(c7ccc8c(c7)C(=O)N(C7CCC(=O)NC7=O)C8=O)CC6)CC5)cc4)n3)C2)C1=O (centres unmarked) [Compound 055, 5-((4-(1-((1-(2-(2,6-dioxopiperidin-3-yl)-1,3-dioxoisoindol-5-yl)piperidin-4-yl)methyl)piperidin-4-yl)phenyl)amino)-3-(3-(3-isopropyl-2-oxoimidazolin-1-yl)piperidin-1-yl)-1,2,4-triazin-6-carboxamide] | < 1
CN1CCN(C2CCCN(c3nnc(C(N)=O)c(Nc4ccc(C5CCN(CC6CCN(c7cc8c(cc7F)C(=O)N(C7CCC(=O)NC7=O)C8=O)CC6)CC5)cc4)n3)C2)C1=O (centres unmarked) [Compound 085, 5-((4-(1-((1-(2-(2,6-dioxopiperidin-3-yl)-6-fluoro-1,3-dioxoisoindol-5-yl)piperidin-4-yl)methyl)piperidin-4-yl)phenyl)amino)-3-(3-(3-methyl-2-oxoimidazolin-1-yl)piperidin-1-yl)-1,2,4-triazin-6-carboxamide] | < 1
CN1CCN(C2CC3CC2N(c2nnc(C(N)=O)c(Nc4ccc5c(c4)CCN(C4CN(c6ccc7c(c6)C(=O)N(C6CCC(=O)NC6=O)C7=O)C4)C5)n2)C3)C1=O (centres unmarked) [Compound 106, 5-((2-(1-(2-(2,6-dioxopiperidin-3-yl)-1,3-dioxoisoindol-5-yl)azetidine-3-yl)-1,2,3,4-tetrahydroisoquinolin-6-yl)amino)-3-(6-(3-methyl-2-oxoimidazolin-1-yl)-2-azabicyclo[2.2.1]heptan-2-yl)-1,2,4-triazin-6-carboxamide] | < 1
CC1(c2ccc(Nc3nc(N4CCCC(N5CCN(C6COC6)C5=O)C4)cnc3C(N)=O)cc2)CCN(C2CN(c3ccc4c(c3)CN(C3CCC(=O)NC3=O)C4=O)C2)CC1 (centres unmarked) [Compound 014, 3-((4-(1-(1-(2-(2,6-dioxopiperidin-3-yl)-1-oxoisoindol-5-yl)azetidin-3-yl)-4-methylpiperidin-4-yl)phenyl)amino)-5-(3-(3-(oxetan-3-yl)-2-oxoimidazolin-1-yl)piperidin-1-yl)pyrazin-2-carboxamide] | < 1
CN1CCN([C@@H]2CCCN(c3nnc(C(N)=O)c(Nc4ccc(N5CCN(CC6CCN(c7ccc8c9c(cccc79)C(=O)N8C7CCC(=O)NC7=O)CC6)CC5)c(F)c4)n3)C2)C1=O (stereo partly drawn) [Compound 247, 5-((4-(4-((1-(1-(2,6-dioxopiperidin-3-yl)-2-oxo-1,2-dihydrobenzo[cd]indol-6-yl)piperidin-4-yl)methyl)piperazin-1-yl)-3-fluorophenyl)amino)-3-((R)-3-(3-methyl-2-oxoimidazolidin-1-yl)piperidin-1-yl)-1,2,4-triazin-6-carboxamide] | < 1
CN1CCN([C@@H]2CCCN(c3nnc(C(N)=O)c(Nc4ccc(N5CCN(CC6CCN(c7ccc8c(C9CCC(=O)NC9=O)nn(C)c8n7)C6)CC5)c(F)c4)n3)C2)C1=O (stereo partly drawn) [Compound 214, 5-((4-(4-((1-(3-(2,6-dioxopiperidin-3-yl)-1-methyl-H-pyrazolo[3,4-b]pyridin-6-yl)pyrrolidin-3-yl)methyl)piperazin-1-yl)-3-fluorophenyl)amino)-3-((R)-3-(3-methyl-2-oxoimidazolidin-1-yl)piperidin-1-yl)-1,2,4-triazin-6-carboxamide] | < 1
Cc1cc(N2CCC(CN3CCC(c4ccc(Nc5nc(N6CCC[C@@H](N7CCN(C)C7=O)C6)nnc5C(N)=O)c(CO)c4)CC3)CC2)ccc1N1CCC(=O)NC1=O [Compound 238, (R)-5-((4-(1-((1-(4-(2,4-dioxotetrahydropyrimidin-1(2H)-yl)-3-methylphenyl)piperidin-4-yl)methyl)piperidin-4-yl)-2-(hydroxymethyl)phenyl)amino)-3-(3-(3-methyl-2-oxoimidazolidin-1-yl)piperidin-1-yl)-1,2,4-triazin-6-carboxamide] | < 1
